The values below come from ChEMBL document CHEMBL1142828, “Trypanocidal activity of (-)-cubebin derivatives against free amastigote forms of Trypanosoma cruzi” (Bioorg Med Chem Lett, 2005).

Experiment [1] deals with Trypanosoma cruzi. Nature of the experiment: Percentage delyse against amastigote forms of Y strain of Trypanosoma cruzi at 0.5 uM. Type of experiment: functional.
Experiment [2] has as its system Trypanosoma cruzi. Nature of the experiment: Trypanocidal activity against amastigote forms of Y strain of Trypanosoma cruzi. The experiment is classed as functional, organism-based.
Experiment [3] deals with Trypanosoma cruzi. The experiment can be described thus: Percentage delyse against amastigote forms of Y strain of Trypanosoma cruzi at 8 uM. The experiment is classed as functional.
The test system of experiment [4] is Trypanosoma cruzi. The experiment can be described thus: Percentage delyse against amastigote forms of Y strain of Trypanosoma cruzi at 32 uM. The experiment is classed as functional.
Experiment [5] relates to Trypanosoma cruzi. Nature of the experiment: Percentage delyse against amastigote forms of Y strain of Trypanosoma cruzi at 2 uM. Type of experiment: functional.

As to `O=C1OC[C@H](Cc2ccc3c(c2)OCO3)[C@@H]1Cc1ccc2c(c1)OCO2`, the Delyse in experiment [1] turned out to be 47.6%; in experiment [3] it was 57.6%; in experiment [4], 63.6%; in experiment [5], 57%. Besides, the half-maximal inhibitory concentration (IC50) in experiment [2] came to 0.7 µM.
On to `CN(C)CCOC1OC[C@H](Cc2ccc3c(c2)OCO3)[C@@H]1Cc1ccc2c(c1)OCO2` (stereo not given in full), for which the Delyse in experiment [1] is reported as 33.6%; in experiment [3], 50.8%; in experiment [4], 57.8%; in experiment [5] it was 55.4%. In addition, in experiment [2], the IC50 came out at 4.7 µM.
The corresponding values for `O=C(Cn1ccnc1[N+](=O)[O-])NCc1ccccc1` [BENZNIDAZOLE] are 38.4%, 69%, 68%, 67% and 0.8 µM.
The corresponding values for `CC(=O)OC1OC[C@H](Cc2ccc3c(c2)OCO3)[C@@H]1Cc1ccc2c(c1)OCO2` (stereo not given in full) are 14.5%, 29%, 26.4%, 26% and roughly 15000 µM.
The corresponding values for `c1ccc(COC2OC[C@H](Cc3ccc4c(c3)OCO4)[C@@H]2Cc2ccc3c(c2)OCO3)cc1` (stereo not given in full) are 37%, 46.8%, 68.8%, 38% and 5.7 µM.
Take `O=C1OC[C@H](Cc2cc3c(cc2[N+](=O)[O-])OCO3)[C@@H]1Cc1cc2c(cc1[N+](=O)[O-])OCO2`: the Delyse is listed as 34.6% in experiment [1], 38.9% in experiment [3], 48.5% in experiment [4] and 48.7% in experiment [5]. In experiment [2], this molecule came in with an IC50 of 95.3 µM.
